Measured values from the NIST ThermoML archive (doi:10.1016/j.jct.2016.04.003).

Test: xn = mol fraction of the nth substance listed
Settings: for surface tension liquid-gas: Drop volume; for viscosity / speed of sound / mass density: 99 kPa, Liquid; for viscosity: Capillary tube (Ostwald / Ubbelohde) method; for speed of sound: Frequency=3 MHz, Sing-around technique in a fixed-path interferometer; for mass density: Vibrating tube method

CCC[n+]1ccccc1.F[B-](F)(F)F [1-propylpyridinium tetrafluoroborate] + O
Settings | mass density [kg/m3] | speed of sound [m/s] | surface tension liquid-gas [mN/m] | viscosity [mPa·s]
293.15 K, x1 = 0.0185 | 1034.4 | 1537.2 | – | –
293.15 K, x1 = 0.028 | – | – | 58.5 | –
293.15 K, x1 = 0.0287 | 1050.5 | 1551 | – | –
293.15 K, x1 = 0.0466 | 1074 | 1568.7 | – | –
293.15 K, x1 = 0.0492 | – | – | – | 1.359
293.15 K, x1 = 0.0551 | – | – | 56.1 | –
293.15 K, x1 = 0.0766 | 1103.9 | 1590.8 | – | –
293.15 K, x1 = 0.0952 | – | – | – | 1.827
293.15 K, x1 = 0.0964 | 1119 | 1602.6 | – | –
293.15 K, x1 = 0.1008 | – | – | 54 | –
293.15 K, x1 = 0.1522 | – | – | 52.7 | –
293.15 K, x1 = 0.1948 | – | – | – | 2.933
293.15 K, x1 = 0.1965 | – | – | 52 | –
293.15 K, x1 = 0.2011 | 1169.1 | 1640.9 | – | –
293.15 K, x1 = 0.2588 | – | – | – | 4.438
293.15 K, x1 = 0.2858 | 1191.6 | 1651.5 | – | –
293.15 K, x1 = 0.2947 | – | – | 51.5 | –
293.15 K, x1 = 0.3451 | – | – | 51.4 | –
293.15 K, x1 = 0.3891 | – | – | – | 8.303
293.15 K, x1 = 0.3968 | – | – | 51.2 | –
293.15 K, x1 = 0.3993 | 1211.3 | 1654.2 | – | –
293.15 K, x1 = 0.4779 | – | – | 51.1 | –
293.15 K, x1 = 0.4894 | – | – | – | 13.36
293.15 K, x1 = 0.4979 | 1223.2 | 1651.5 | – | –
293.15 K, x1 = 0.5772 | 1230.6 | 1648.1 | – | –
293.15 K, x1 = 0.5827 | – | – | 51.1 | –
293.15 K, x1 = 0.5942 | – | – | – | 19.97
293.15 K, x1 = 0.6015 | 1232.5 | 1647.3 | – | –
293.15 K, x1 = 0.6695 | 1237.6 | 1645.8 | – | –
293.15 K, x1 = 0.6846 | – | – | 51 | –
293.15 K, x1 = 0.6952 | – | – | – | 33.13
293.15 K, x1 = 0.7309 | 1241.4 | 1645.4 | – | –
293.15 K, x1 = 0.7771 | 1244.2 | 1645.6 | – | –
293.15 K, x1 = 0.7861 | – | – | 51 | –
293.15 K, x1 = 0.7903 | – | – | – | 53.92
293.15 K, x1 = 0.8395 | 1247.6 | 1647.1 | – | –
293.15 K, x1 = 0.8862 | – | – | 51.1 | –
293.15 K, x1 = 0.8982 | – | – | – | 97.09
293.15 K, x1 = 0.9054 | 1251.2 | 1649.5 | – | –
293.15 K, x1 = 0.9425 | – | – | 51.2 | –
293.15 K, x1 = 0.943 | – | – | – | 124.2
293.15 K, x1 = 0.9633 | 1254.5 | 1652.1 | – | –
293.15 K, x1 = 1 | 1256.7 | 1653.9 | 51.3 | 160
303.15 K, x1 = 0.0185 | 1030.5 | 1550.2 | – | –
303.15 K, x1 = 0.028 | – | – | 57.2 | –
303.15 K, x1 = 0.0287 | 1046.1 | 1564 | – | –
303.15 K, x1 = 0.0466 | 1068.7 | 1581.1 | – | –
303.15 K, x1 = 0.0492 | – | – | – | 1.092
303.15 K, x1 = 0.0551 | – | – | 54.8 | –
303.15 K, x1 = 0.0766 | 1097.8 | 1599.5 | – | –
303.15 K, x1 = 0.0952 | – | – | – | 1.278
303.15 K, x1 = 0.0964 | 1112.5 | 1607.8 | – | –
303.15 K, x1 = 0.1008 | – | – | 52.8 | –
303.15 K, x1 = 0.1522 | – | – | 51.6 | –
303.15 K, x1 = 0.1948 | – | – | – | 2.334
303.15 K, x1 = 0.1965 | – | – | 50.9 | –
303.15 K, x1 = 0.2011 | 1161.7 | 1627.8 | – | –
303.15 K, x1 = 0.2588 | – | – | – | 3.141
303.15 K, x1 = 0.2858 | 1184.2 | 1630.3 | – | –
303.15 K, x1 = 0.2947 | – | – | 50.6 | –
303.15 K, x1 = 0.3451 | – | – | 50.5 | –
303.15 K, x1 = 0.3891 | – | – | – | 6.162
303.15 K, x1 = 0.3968 | – | – | 50.3 | –
303.15 K, x1 = 0.3993 | 1203.8 | 1629.5 | – | –
303.15 K, x1 = 0.4779 | – | – | 50.2 | –
303.15 K, x1 = 0.4894 | – | – | – | 9.757
303.15 K, x1 = 0.4979 | 1215.7 | 1627.3 | – | –
303.15 K, x1 = 0.5772 | 1223.1 | 1625.1 | – | –
303.15 K, x1 = 0.5827 | – | – | 50.3 | –
303.15 K, x1 = 0.5942 | – | – | – | 14.93
303.15 K, x1 = 0.6015 | 1225 | 1624.6 | – | –
303.15 K, x1 = 0.6695 | 1230 | 1623.3 | – | –
303.15 K, x1 = 0.6846 | – | – | 50.3 | –
303.15 K, x1 = 0.6952 | – | – | – | 22.56
303.15 K, x1 = 0.7309 | 1233.9 | 1622.6 | – | –
303.15 K, x1 = 0.7771 | 1236.7 | 1622.4 | – | –
303.15 K, x1 = 0.7861 | – | – | 50.3 | –
303.15 K, x1 = 0.7903 | – | – | – | 34.94
303.15 K, x1 = 0.8395 | 1240.2 | 1623 | – | –
303.15 K, x1 = 0.8862 | – | – | 50.3 | –
303.15 K, x1 = 0.8982 | – | – | – | 58.66
303.15 K, x1 = 0.9054 | 1243.9 | 1624.6 | – | –
303.15 K, x1 = 0.9425 | – | – | 50.4 | –
303.15 K, x1 = 0.943 | – | – | – | 70.68
303.15 K, x1 = 0.9633 | 1247.3 | 1627.3 | – | –
303.15 K, x1 = 1 | 1249.5 | 1629.8 | 50.5 | 90.75
